Experimental findings from patent US20260144788A1, “COMPOUND FOR SHP2 PROTEIN DEGRADATION AND MEDICAL USES THEREOF” (UBIX THERAPEUTICS, INC., priority 2022, published 2026) are described below.

For the experiment, the target named is T1, SHP2 protein (Homo sapiens, UniProt Q06124).
T1 sequence (Q06124 1-593): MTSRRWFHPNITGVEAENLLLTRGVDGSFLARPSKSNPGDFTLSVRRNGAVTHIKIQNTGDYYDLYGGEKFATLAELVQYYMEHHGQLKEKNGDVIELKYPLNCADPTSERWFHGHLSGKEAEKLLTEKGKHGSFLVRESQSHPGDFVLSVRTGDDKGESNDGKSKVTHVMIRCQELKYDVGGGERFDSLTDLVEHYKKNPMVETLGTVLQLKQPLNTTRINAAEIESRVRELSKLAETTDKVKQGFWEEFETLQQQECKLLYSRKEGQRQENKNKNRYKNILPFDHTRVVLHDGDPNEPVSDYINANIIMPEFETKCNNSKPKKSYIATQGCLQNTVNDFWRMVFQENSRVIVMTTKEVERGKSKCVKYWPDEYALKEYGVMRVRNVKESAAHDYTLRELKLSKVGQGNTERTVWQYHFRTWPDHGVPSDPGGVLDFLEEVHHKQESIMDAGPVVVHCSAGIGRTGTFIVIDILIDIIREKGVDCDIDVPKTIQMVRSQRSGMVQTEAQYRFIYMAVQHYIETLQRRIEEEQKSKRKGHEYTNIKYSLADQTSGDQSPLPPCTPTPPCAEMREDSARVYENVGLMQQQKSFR
Briefly: Measurement of SHP2 protein degradation in MV-4-11 cells (western blotting). The class given is cell-based. The arrangement: endogenous in cells. As to conditions: harvested after 24 hours. The gist of the method: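 MV-4-11 cells in IMDM/5% FBS were exposed to compound at final 0.01, 0.1, 1 μM or 0.001, 0.01, 0.1 μM for 24 h, DMSO as negative control. BCA-normalised lysates were immunoblotted for SHP2 with GAPDH as loading control, read on LI-COR Odyssey.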
In general terms: In western blotting, separated proteins are transferred to a membrane and probed.

Take `Cc1ncsc1-c1ccc(CNC(=O)[C@@H]2C[C@@H](O)CN2C(=O)[C@@H](NC(=O)C2(F)CC2)C(C)(C)C)c(OC2CCN(C(=O)[C@H]3CC[C@H](Nc4nccc(Sc5cnc(N6CCC(C)(CN)CC6)cn5)c4Cl)CC3)CC2)c1` [Example 62, (2S,4R)—N-(2-((1-((1R,4S)-4-((4-((5-(4-(aminomethyl)-4-methylpiperidin-1-yl)pyrazin-2-yl)thio)-3-chloropyridin-2-yl)amino)cyclohexanecarbonyl)piperidin-4-yl)oxy)-4-(4-methylthiazol-5-yl)benzyl)-1-((S)-2-(1-fluorocyclopropane-1-carboxamido)-3,3-dimethylbutanoyl)-4-hydroxypyrrolidine-2-carboxamide]: the SHP2% degradation was determined as 75.6% (0.01 μM) and 98.9% (0.1 μM).

For `Cc1ncsc1-c1ccc(CNC(=O)[C@@H]2C[C@@H](O)CN2C(=O)[C@@H](NC(=O)C2(F)CC2)C(C)(C)C)c(OC2CCN(C(=O)C3CCN(c4nccc(Sc5cnc(N6CCC(C)(CN)CC6)cn5)c4Cl)CC3)CC2)c1` [Example 65, (2S,4R)—N-(2-((1-(1-(4-((5-(4-(aminomethyl)-4-methylpiperidin-1-yl)pyrazin-2-yl)thio)-3-chloropyridin-2-yl)piperidine-4-carbonyl)piperidin-4-yl)oxy)-4-(4-methylthiazol-5-yl)benzyl)-1-((S)-2-(1-fluorocyclopropane-1-carboxamido)-3,3-dimethylbutanoyl)-4-hydroxypyrrolidine-2-carboxamide], the SHP2% degradation reads like this: (0.01 μM) 85.2%; (0.1 μM) 98.1%.

As to `Cc1ncsc1-c1ccc(CNC(=O)[C@@H]2C[C@@H](O)CN2C(=O)[C@@H](NC(=O)C2(F)CC2)C(C)(C)C)c(OC2CCN(C(=O)C3CCN(c4nccc(Sc5cnc(N6CCC(C)(N)CC6)cn5)c4Cl)CC3)CC2)c1` [Example 66, (2S,4R)—N-(2-((1-(1-(4-((5-(4-amino-4-methylpiperidin-1-yl)pyrazin-2-yl)thio)-3-chloropyridin-2-yl)piperidine-4-carbonyl)piperidin-4-yl)oxy)-4-(4-methylthiazol-5-yl)benzyl)-1-((S)-2-(1-fluorocyclopropane-1-carboxamido)-3,3-dimethylbutanoyl)-4-hydroxypyrrolidine-2-carboxamide], the SHP2% degradation was 78.6% (0.01 μM) and 99.6% (0.1 μM).

Regarding `Cc1ncsc1-c1ccc(CNC(=O)[C@@H]2C[C@@H](O)CN2C(=O)[C@@H](NC(=O)C2(F)CC2)C(C)(C)C)c(OC2CCN(C(=O)C3(C)CCN(c4nccc(Sc5cnc(N6CCC(C)(CN)CC6)cn5)c4Cl)CC3)CC2)c1` [Example 68, (2S,4R)—N-(2-((1-(1-(4-((5-(4-(aminomethyl)-4-methylpiperidin-1-yl)pyrazin-2-yl)thio)-3-chloropyridin-2-yl)-4-methylpiperidine-4-carbonyl)piperidin-4-yl)oxy)-4-(4-methylthiazol-5-yl)benzyl)-1-((S)-2-(1-fluorocyclopropane-1-carboxamido)-3,3-dimethylbutanoyl)-4-hydroxypyrrolidine-2-carboxamide], the SHP2% degradation is recorded as −22.1% (0.01 μM) and 95.7% (0.1 μM).

On to `Cc1ncsc1-c1ccc(CNC(=O)[C@@H]2C[C@@H](O)CN2C(=O)[C@@H](NC(=O)C2(F)CC2)C(C)(C)C)c(OC2CCN(C(=O)C3(F)CCN(c4nccc(Sc5cnc(N6CCC(C)(CN)CC6)cn5)c4Cl)CC3)CC2)c1` [Example 69, (2S,4R)—N-(2-((1-(1-(4-((5-(4-(aminomethyl)-4-methylpiperidin-1-yl)pyrazin-2-yl)thio)-3-chloropyridin-2-yl)-4-fluoropiperidine-4-carbonyl)piperidin-4-yl)oxy)-4-(4-methylthiazol-5-yl)benzyl)-1-((S)-2-(1-fluorocyclopropane-1-carboxamido)-3,3-dimethylbutanoyl)-4-hydroxypyrrolidine-2-carboxamide], for which the SHP2% degradation (0.01 μM) amounted to 19.9% and the SHP2% degradation (0.1 μM) was found to be 99.8%.

Turning to `Cc1ncsc1-c1ccc(CNC(=O)[C@@H]2C[C@@H](O)CN2C(=O)[C@@H](NC(=O)C2(F)CC2)C(C)(C)C)c(OC2CCN(C(=O)C3(O)CCN(c4nccc(Sc5cnc(N6CCC(C)(CN)CC6)cn5)c4Cl)CC3)CC2)c1` [Example 70, (2S,4R)—N-(2-((1-(1-(4-((5-(4-(aminomethyl)-4-methylpiperidin-1-yl)pyrazin-2-yl)thio)-3-chloropyridin-2-yl)-4-hydroxypiperidine-4-carbonyl)piperidin-4-yl)oxy)-4-(4-methylthiazol-5-yl)benzyl)-1-((S)-2-(1-fluorocyclopropane-1-carboxamido)-3,3-dimethylbutanoyl)-4-hydroxypyrrolidine-2-carboxamide], the SHP2% degradation is, setting by setting: (0.01 μM) 84.5%; (0.1 μM) 99.9%.

Turning to `Cc1ncsc1-c1ccc(CNC(=O)[C@@H]2C[C@@H](O)CN2C(=O)[C@@H](NC(=O)C2(F)CC2)C(C)(C)C)c(OC2CCN(C(=O)CC3CCN(c4nccc(Sc5cnc(N6CCC(C)(CN)CC6)cn5)c4Cl)CC3)CC2)c1` [Example 71, (2S,4R)—N-(2-((1-(2-(1-(4-((5-(4-(aminomethyl)-4-methylpiperidin-1-yl)pyrazin-2-yl)thio)-3-chloropyridin-2-yl)piperidin-4-yl)acetyl)piperidin-4-yl)oxy)-4-(4-methylthiazol-5-yl)benzyl)-1-((S)-2-(1-fluorocyclopropane-1-carboxamido)-3,3-dimethylbutanoyl)-4-hydroxypyrrolidine-2-carboxamide], the SHP2% degradation was 60.0% (0.01 μM) and 99.4% (0.1 μM).

Take `Cc1ncsc1-c1ccc(CNC(=O)[C@@H]2C[C@@H](O)CN2C(=O)[C@@H](NC(=O)C2(F)CC2)C(C)(C)C)c(OC2CCN(C(=O)CC3(O)CCN(c4nccc(Sc5cnc(N6CCC(C)(CN)CC6)cn5)c4Cl)CC3)CC2)c1` [Example 72, (2S,4R)—N-(2-((1-(2-(1-(4-((5-(4-(aminomethyl)-4-methylpiperidin-1-yl)pyrazin-2-yl)thio)-3-chloropyridin-2-yl)-4-hydroxypiperidin-4-yl)acetyl)piperidin-4-yl)oxy)-4-(4-methylthiazol-5-yl)benzyl)-1-((S)-2-(1-fluorocyclopropane-1-carboxamido)-3,3-dimethylbutanoyl)-4-hydroxypyrrolidine-2-carboxamide]: the SHP2% degradation runs as follows: (0.01 μM) 91.5%; (0.1 μM) 99.8%.

On to `Cc1ncsc1-c1ccc(CNC(=O)[C@@H]2C[C@@H](O)CN2C(=O)[C@@H](NC(=O)C2(F)CC2)C(C)(C)C)c(OC2CN(C(=O)C3CCN(c4nccc(Sc5cnc(N6CCC(C)(CN)CC6)cn5)c4Cl)CC3)C2)c1` [Example 73, (2S,4R)—N-(2-((1-(1-(4-((5-(4-(aminomethyl)-4-methylpiperidin-1-yl)pyrazin-2-yl)thio)-3-chloropyridin-2-yl)piperidine-4-carbonyl)azetidin-3-yl)oxy)-4-(4-methylthiazol-5-yl)benzyl)-1-((S)-2-(1-fluorocyclopropane-1-carboxamido)-3,3-dimethylbutanoyl)-4-hydroxypyrrolidine-2-carboxamide], for which the SHP2% degradation runs as follows: (0.01 μM) 65.8%; (0.1 μM) 97.7%.

With `CC(=O)N[C@H](C(=O)N1C[C@H](O)C[C@H]1C(=O)NCc1ccc(-c2scnc2C)cc1OC1CCN(C(=O)[C@H]2C[C@@H](Nc3nccc(Sc4cnc(N5CCC(C)(CN)CC5)cn4)c3Cl)C2)CC1)C(C)(C)C` [Example 74, (2S,4R)-1-((S)-2-acetamido-3,3-dimethylbutanoyl)-N-(2-((1-((1S,3R)-3-((4-((5-(4-(aminomethyl)-4-methylpiperidin-1-yl)pyrazin-2-yl)thio)-3-chloropyridin-2-yl)amino)cyclobutanecarbonyl)piperidin-4-yl)oxy)-4-(4-methylthiazol-5-yl)benzyl)-4-hydroxypyrrolidine-2-carboxamide], the SHP2% degradation (0.01 μM) stood at 97.0% and the SHP2% degradation (0.1 μM) is given as 99.8%.

For the molecule `CC(=O)N[C@H](C(=O)N1C[C@H](O)C[C@H]1C(=O)NCc1ccc(-c2scnc2C)cc1OC1CCN(C(=O)C2CCN(c3nccc(Sc4cnc(N5CCC(C)(CN)CC5)cn4)c3Cl)CC2)CC1)C(C)(C)C` [Example 75, (2S,4R)-1-((S)-2-acetamido-3,3-dimethylbutanoyl)-N-(2-((1-(1-(4-((5-(4-(aminomethyl)-4-methylpiperidin-1-yl)pyrazin-2-yl)thio)-3-chloropyridin-2-yl)piperidine-4-carbonyl)piperidin-4-yl)oxy)-4-(4-methylthiazol-5-yl)benzyl)-4-hydroxypyrrolidine-2-carboxamide], the SHP2% degradation is, setting by setting: (0.01 μM) 97.0%; (0.1 μM) 99.3%.
